Test results: patent EP4603105A1, “PHARMACEUTICAL COMPOSITION CONTAINING CYCLIC COMPOUND HAVING SELECTIVE KRAS INHIBITORY EFFECT AGAINST HRAS AND NRAS” (CHUGAI SEIYAKU KABUSHIKI KAISHA, priority 2022, dated 2024)

Experiments:
[1] = system: human lung cancer strain NCI-H441; type: cell-based
In short: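 Proliferation was scored by […] measured after the reagent was added to cultures kept at 37°C in 5% carbon dioxide.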

[2] = target: GDP-bound KRAS wild-type protein (Homo sapiens, UniProt P01116); test: Binding to KRAS by surface plasmon resonance (SPR), dissociation constant KD
Chain of GDP-bound KRAS wild-type protein (P01116 1-188 isoform P01116-2): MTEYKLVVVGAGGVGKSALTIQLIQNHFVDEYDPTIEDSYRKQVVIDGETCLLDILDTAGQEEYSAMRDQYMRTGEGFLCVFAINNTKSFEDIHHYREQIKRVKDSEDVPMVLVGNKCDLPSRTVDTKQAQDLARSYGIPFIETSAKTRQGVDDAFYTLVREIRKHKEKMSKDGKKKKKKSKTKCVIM
In short: (§1)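 Single-cycle kinetics on GDP-loaded biotin-Avi RAS captured to ~100–300 RU; 75 s ascending injections, 100 µL/min, 30°C. HBS pH 7.4 + 10 mM MgCl2/10 µM GDP/4% DMSO. 1:1 fit, KD.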

[3] = target: GDP-bound NRAS wild-type protein (Homo sapiens, UniProt P01111); test: Binding to NRAS by surface plasmon resonance (SPR), KD and KD ratio to KRAS
Chain of GDP-bound NRAS wild-type protein (P01111 whole entry): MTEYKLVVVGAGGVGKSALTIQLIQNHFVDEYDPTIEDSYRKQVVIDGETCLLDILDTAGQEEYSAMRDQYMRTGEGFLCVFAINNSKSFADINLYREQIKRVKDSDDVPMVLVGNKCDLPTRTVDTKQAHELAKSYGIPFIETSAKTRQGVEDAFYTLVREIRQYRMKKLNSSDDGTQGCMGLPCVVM
In short: as §1

[4] = target: HRAS wild-type protein (Homo sapiens, UniProt P01112); test: Binding to HRAS by surface plasmon resonance (SPR), KD and KD ratio to KRAS
Chain of HRAS wild-type protein (P01112 whole entry): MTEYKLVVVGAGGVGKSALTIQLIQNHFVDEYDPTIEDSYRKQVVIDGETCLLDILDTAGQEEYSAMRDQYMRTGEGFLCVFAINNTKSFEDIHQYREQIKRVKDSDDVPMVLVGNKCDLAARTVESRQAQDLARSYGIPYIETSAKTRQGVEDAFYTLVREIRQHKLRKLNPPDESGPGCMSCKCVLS
In short: as §1

[5] = Single Cycle Kinetics, 1:1 binding model
[6] = ratio of KD value for GDP-bound NRAS wild-type protein to KD value for KRAS (SPR)
[7] = ratio of KD value for HRAS wild-type protein to KD value for KRAS (SPR)
[8] = ratio of KD for GDP-bound NRAS wild-type protein to KD for KRAS
[9] = ratio of KD for HRAS wild-type protein to KD for KRAS
[10] = ratio of the KD value with respect to GDP-bound NRAS wild-type protein to the KD value with respect to KRAS
[11] = ratio of the KD value with respect to HRAS wild-type protein to the KD value with respect to KRAS

Row | Structure (SMILES) | IC50 [1] [nM] | Kd [2, 5] [nM] | NRAS /KRAS [3, 6] | HRAS /KRAS [4, 7] | Kd ([2]; 1:1 binding model) [nM] | NRAS /KRAS [3, 8] | HRAS /KRAS [4, 9] | Kd ([2]; Single Cycle Kinetics) [nM] | NRAS /KRAS [3, 10] | HRAS /KRAS [4, 11]
1 | CCO[C@@H]1C[C@H]2C(=O)NC3(CCC3)C(=O)N(C)[C@@H](C(CC)CC)C(=O)N(C)[C@H](C3CCC3)CC(=O)N(C)[C@@H](CC3CC3)C(=O)N[C@@H]([C@@H](C)CC)C(=O)N(C)CC(=O)N(C)[C@H]3C/C=C\CCN(C3=O)[C@@H](Cc3ccc(C(F)(F)F)cc3)C(=O)N(C)CC(=O)N[C@@H](CCc3cc(F)c(C(F)(F)F)c(F)c3)C(=O)N2C1 [PP1636] | 95.2 | 2.8 | A (a compound having 10 or more and less than 20 is denoted as A) | A (a compound having 10 or more and less than 20 is denoted as A) | – | – | – | – | – | –
2 | CCO[C@@H]1C[C@H]2C(=O)NC3(CCC3)C(=O)N(C)[C@@H](C3CCCC3)C(=O)N(C)[C@H](C)CC(=O)N(C)[C@@H](CC(C)C)C(=O)N[C@@H]([C@@H](C)CC)C(=O)N(C)CC(=O)N(C)[C@H]3C/C=C\CCN(C3=O)[C@@H](Cc3ccc(F)cc3)C(=O)N(C)CC(=O)N[C@@H](CCc3cc(F)c(C(F)(F)F)c(F)c3)C(=O)N2C1 [PP1494] | 142 | 0.58 | B (a compound having 3 or more and less than 10 is denoted as B) | B (a compound having 3 or more and less than 10 is denoted as B) | – | – | – | – | – | –
3 | CCC[C@H]1C(=O)N[C@@H](C2CCOCC2)C(=O)N(C)CC(=O)N(C)[C@H]2C/C=C\CCN(C2=O)[C@@H](Cc2ccc(C)cc2)C(=O)N(C)CC(=O)N[C@@H](CCc2ccc(C(F)(F)F)c(Cl)c2)C(=O)N2C[C@H](OCC)C[C@H]2C(=O)NC2(CC(C)(C)C2)C(=O)N(C)[C@@H](CC(C)(C)C)C(=O)N(C)[C@H](C(=O)N(C)C)CC(=O)N1C [PP3026] | 53.6 | – | – | – | 0.66 | A (a compound having 10 or more and less than 20 is denoted as A) | A (a compound having 10 or more and less than 20 is denoted as A) | – | – | –
4 | CC[C@H](C)[C@@H]1NC(=O)[C@H](CC(C)C)N(C)C(=O)C[C@@H](C(=O)N2CCOCC2)N(C)C(=O)[C@H](C2CCCC2)N(C)C(=O)C2(CCC2)NC(=O)[C@]2(C)CCCN2C(=O)[C@H](CCc2cc(F)c(C(F)(F)F)c(F)c2)NC(=O)CN(C)C(=O)[C@H](Cc2ccc(C(F)(F)F)cc2)N2CCCCC[C@@H](C2=O)N(C)C(=O)CN(C)C1=O [PP0817] | 112 | – | – | – | – | A (a compound having 10 or more and less than 20 is denoted as A) | B (a compound having 3 or more and less than 10 is denoted as B) | 0.36 | – | –
5 | CCO[C@@H]1C[C@H]2C(=O)NC3(CC(C)(C)C3)C(=O)N(C)[C@@H](C3CCCC3)C(=O)N(C)[C@H](C(=O)N(C)CC)CC(=O)N(C)[C@@H](CC(C)C)C(=O)N[C@@H]([C@@H](C)CC)C(=O)N(C)CC(=O)N(C)[C@H]3C/C=C\CCN(C3=O)[C@@H](Cc3ccc(C(F)F)cc3)C(=O)N(C)CC(=O)N[C@@H](CCc3ccc(C(F)(F)F)c(C4CC4)c3)C(=O)N2C1 [PP3151] | 18.6 | – | – | – | 0.23 | A (a compound having 10 or more and less than 20 is denoted as A) | A (a compound having 10 or more and less than 20 is denoted as A) | – | – | –
6 | CCC[C@H]1C(=O)N[C@@H](C2CCC2)C(=O)N(C)CC(=O)N(C)[C@H]2C/C=C\CCN(C2=O)[C@@H](Cc2ccc(C)cc2)C(=O)N(C)CC(=O)N[C@@H](CCc2ccc(C(F)(F)F)c(F)c2)C(=O)N2C[C@H](OCC)C[C@H]2C(=O)NC2(CC(C)(C)C2)C(=O)N(C)[C@@H](C2CCC2)C(=O)N(C)[C@H](C(=O)N(C)C)CC(=O)N1C [PP2242] | 178 | 1.8 | – | – | – | – | – | – | A (a compound having 10 or more and less than 20 is denoted as A) | A (a compound having 10 or more and less than 20 is denoted as A)
7 | CCCN(C)C(=O)[C@@H]1CC(=O)N(C)[C@@H](C2CCC2)C(=O)N[C@@H]([C@@H](C)CC)C(=O)N(C)CC(=O)N(C)[C@H]2C/C=C\CCN(C2=O)[C@@H](Cc2ccc(C(F)(F)F)cc2)C(=O)N(C)CC(=O)N[C@@H](CCc2ccc(C(F)(F)F)c(OC)c2)C(=O)N2C[C@H](OCC)C[C@H]2C(=O)NC2(CCC2)C(=O)N(C)[C@@H](C2CCCC2)C(=O)N1C [PP2023] | 10.5 | 0.11 | – | – | – | – | – | – | A (a compound having 10 or more and less than 20 is denoted as A) | B (a compound having 3 or more and less than 10 is denoted as B)
8 | CCC(CC)[C@H]1C(=O)N(C)[C@H](C(=O)N(C)C)CC(=O)N(C)[C@@H](COC)C(=O)N[C@@H]([C@@H](C)CC)C(=O)N(C)CC(=O)N(C)[C@H]2C/C=C\CCN(C2=O)[C@@H](Cc2ccc(C)cc2)C(=O)N(C)CC(=O)N[C@@H](CCc2ccc(C(F)(F)F)c(OC)c2)C(=O)N2CCCCC[C@H]2C(=O)NC2(CC(C)(C)C2)C(=O)N1C [PP2970] | 23 | – | – | – | 0.46 | A (a compound having 10 or more and less than 20 is denoted as A) | A (a compound having 10 or more and less than 20 is denoted as A) | – | – | –
9 | CCO[C@@H]1C[C@H]2C(=O)NC3(CC(C)(C)C3)C(=O)N(C)[C@@H](C3CCCC3)C(=O)N(C)[C@H](C(=O)N(C)C)CC(=O)N(C)[C@@H]([C@H](C)OC)C(=O)N[C@@H]([C@@H](C)CC)C(=O)N(C3CC3)CC(=O)N(C)[C@H]3C/C=C\CCN(C3=O)[C@@H](Cc3ccc(C)cc3)C(=O)N(C)CC(=O)N[C@@H](CCc3ccc(C(F)(F)F)c(OC)c3)C(=O)N2C1 [PP3191] | 38.9 | – | – | – | 0.49 | A (a compound having 10 or more and less than 20 is denoted as A) | A (a compound having 10 or more and less than 20 is denoted as A) | – | – | –
10 | CC[C@H](C)[C@@H]1NC(=O)[C@H](CC(C)C)N(C)C(=O)C[C@@H](C)N(C)C(=O)[C@H](C2CCCC2)N(C)C(=O)C2(CCC2)NC(=O)[C@@H]2CCCN2C(=O)[C@H](CCc2cc(F)c(C(F)(F)F)c(F)c2)NC(=O)CN(C)C(=O)[C@H](Cc2ccc(C(F)(F)F)cc2)N2CC/C=C\C[C@@H](C2=O)N(C)C(=O)CN(C)C1=O [PP1099] | 68.1 | – | – | – | – | B (a compound having 3 or more and less than 10 is denoted as B) | A (a compound having 10 or more and less than 20 is denoted as A) | 0.58 | – | –
11 | CCCOC[C@H]1C(=O)N[C@@H]([C@@H](C)CC)C(=O)N(C)CC(=O)N(C)[C@H]2C/C=C\CCN(C2=O)[C@@H](Cc2ccc(C)cc2)C(=O)N(C)CC(=O)N[C@@H](CCc2ccc(C(F)(F)F)c(Cl)c2)C(=O)N2C[C@H](CC)C[C@H]2C(=O)NC2(CC(C)(C)C2)C(=O)N(C)[C@@H](C2CCCC2)C(=O)N(C)[C@H](C(=O)N(C)C)CC(=O)N1C [PP2235] | 22.1 | 0.28 | – | – | – | – | – | – | A (a compound having 10 or more and less than 20 is denoted as A) | A (a compound having 10 or more and less than 20 is denoted as A)
12 | CCC[C@H]1C(=O)N[C@@H]([C@@H](C)CC)C(=O)N(C)CC(=O)N(C)[C@H]2C/C=C\CCN(C2=O)[C@@H](Cc2ccc(C)cc2)C(=O)N(C)CC(=O)N[C@@H](CCc2ccc(C(F)(F)F)c(Cl)c2)C(=O)N2C[C@H](CC)C[C@H]2C(=O)NC2(CCC2)C(=O)N(C)[C@@H](C2CCCC2)C(=O)N(C)[C@H](C(=O)N(C)C)CC(=O)N1C [PP2237] | 64.7 | 0.14 | – | – | – | – | – | – | A (a compound having 10 or more and less than 20 is denoted as A) | A (a compound having 10 or more and less than 20 is denoted as A)
13 | CCO[C@@H]1C[C@H]2C(=O)NC3(CCC3)C(=O)N(C)[C@@H](C3CCCC3)C(=O)N(C)[C@H](C(=O)N3CCOCC3)CC(=O)N(C)[C@@H](CC(C)C)C(=O)N[C@@H]([C@H](C)CC)C(=O)N(C)CC(=O)N(C)[C@H]3CCCCN(C3=O)[C@@H](Cc3ccc(C(F)(F)F)cc3)C(=O)N(C)CC(=O)N[C@@H](CCc3cc(F)c(C(F)(F)F)c(F)c3)C(=O)N2C1 [PP0806] | 16.9 | – | – | – | – | B (a compound having 3 or more and less than 10 is denoted as B) | B (a compound having 3 or more and less than 10 is denoted as B) | 0.19 | – | –
14 | CCCOC[C@H]1C(=O)N[C@@H]([C@@H](C)CC)C(=O)N(C2CC2)CC(=O)N(C)[C@H]2C/C=C\CCN(C2=O)[C@@H](CC2CCC(F)(F)CC2)C(=O)N(C)CC(=O)N[C@@H](CCc2ccc(C(F)(F)F)c(OC)c2)C(=O)N2C[C@H](OCC)C[C@H]2C(=O)N(C)C2(CCC2)C(=O)N(C)[C@@H](C2CCCC2)C(=O)N(C)[C@H](C(=O)N(C)C)CC(=O)N1C [PP2354] | 9.3 | 0.79 | – | – | – | – | – | – | A (a compound having 10 or more and less than 20 is denoted as A) | A (a compound having 10 or more and less than 20 is denoted as A)
